In patent publication US20220411471A1, “CELL-PERMEABLE CYCLIC PEPTIDES AND USES THEREOF” (Unnatural Products Inc., priority 2019, published 2022) one finds IC50 data, which are given here for five molecules.

This test deals with T1, Human MDM2 (HDM2) 1-116 (Homo sapiens, UniProt Q00987).
T1 construct: Human MDM2 (HDM2) 1-116
In words: Fluorescence polarization assay, MDM2/p53 (Table 3). It counts as binding. How it is done:
(§1) Human MDM2 (HDM2) 1-116 (20 μL) and FITC-labeled p53 (18-26), 50 nM and 10 nM respectively in 10 mM Tris, 50 mM NaCl, 0.01% Tween20, and 1 mM DTT at pH 7.4 were dispensed into an opaque, black, 384 well plate. Compounds dissolved in DMSO were pin transferred (˜200 nL) to the 384 well plate containing the MDM2/p53 solution. After incubation for 10 minutes, the fluorescence polarization was read on a Molecular Devices SpectraMax plate reader equipped with a Fluorescein FP cartridge. In addition to probe alone (positive control) and probe/MDM2 (negative control), a titration of linear p53(18-26) was included on every plate as an additional control. IC50 values were fit using either Prism or Collaborative Drug Discovery.
as §1, with “and FAM-labeled RFMDYWEGL-NH2,” for “and FITC-labeled p53 (18-26),”, “NaCl, 0.010%” for “NaCl, 0.01%”, “transferred (˜100-200” for “transferred (˜200”, “for 60” for “for 10”
For orientation: In fluorescence polarisation assays a small probe gives low polarisation when free and higher when bound to something large.

SMILES strings stand for the structures. pIC50: −log10 of the molar value. Starred links: 1 amine or outer side, 2 acyl side, 3 side chain; linkers in the order of their positions; H or OH if unused. Non-standard residues stand in square brackets, D forms with d. Residues, ends and D or L forms follow the SMILES beside them. Trp(6-Cl) = N[C@@H](Cc1c[nH]c2cc(Cl)ccc12)C(=O)O; Azetidine3carboxylic = O=C(C1CN([*:1])C1)[*:2]; Phe(4-Cl) = N[C@@H](Cc1ccc(Cl)cc1)C(=O)O; Phe(4-F) = N[C@@H](Cc1ccc(F)cc1)C(=O)O; 3Pal = N[C@@H](Cc1cccnc1)C(=O)O; 2Thi = N[C@@H](Cc1cccs1)C(=O)O; NMeL = CN[C@@H](CC(C)C)C(=O)O; Tle = CC(C)(C)[C@H](N)C(=O)O; dPip = O=C(O)[C@H]1CCCCN1; NMeA = CN[C@@H](C)C(=O)O; Nme = COCCNCC(=O)O

T1 sequence (Q00987 1-116): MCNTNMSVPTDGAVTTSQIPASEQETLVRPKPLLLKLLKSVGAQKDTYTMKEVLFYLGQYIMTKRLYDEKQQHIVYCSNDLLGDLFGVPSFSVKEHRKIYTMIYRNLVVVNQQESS

As a reminder, the pIC50 is the IC50 on a negative log10 scale, so that one unit is a factor of ten. A high value points to a small IC50. As to `C[C@H]1C(=O)N[C@@H](Cc2ccc(F)cc2)C(=O)N[C@@H](C(C)(C)C)C(=O)N[C@@H](Cc2ccc(Cl)cc2)C(=O)N2CCCC[C@@H]2C(=O)N2CCC[C@H]2C(=O)N[C@@H](Cc2ccccc2)C(=O)N2CC(C2)C(=O)N[C@@H](Cc2cccnc2)C(=O)N2CCC[C@@H]2C(=O)N1C` [Compound 19, C[C@@H]1N(C)C(=O)[C@H]2CCCN2C(=O)[C@H](Cc2cccnc2)NC(=O)C2CN(C2)C(=O)[C@H](Cc2ccccc2)NC(=O)[C@@H]2CCCN2C(=O)[C@H]2CCCCN2C(=O)[C@H](Cc2ccc(Cl)cc2)NC(=O)[C@@H](NC(=O)[C@H](Cc2ccc(F)cc2)NC1=O)C(C)(C)C] (cyclo([3Pal][dP][NMeA][Phe(4-F)][Tle][Phe(4-Cl)][dPip]PF[Azetidine3carboxylic])), the pIC50 is greater than 6.00.

For the molecule `CC(C)C[C@@H]1NC(=O)[C@H](Cc2c[nH]c3cc(Cl)ccc23)NC(=O)[C@H](CCC(=O)O)NC(=O)[C@H](Cc2ccccc2)NC(=O)[C@@H]2CCCN2C(=O)[C@H]2CCCN2C(=O)[C@H](Cc2ccccc2)NC(=O)[C@H](CCC(=O)O)NC(=O)[C@H](Cc2c[nH]c3ccccc23)NC(=O)[C@H](CC(=O)O)NC1=O` [Compound 1, [H]OC(=O)CC[C@@H]1NC(=O)[C@H](Cc2cn([H])c3ccccc23)NC(=O)[C@H](CC(=O)O[H])NC(=O)[C@H](CC(C)C)NC(=O)[C@H](Cc2c[nH]c3cc(Cl)ccc23)NC(=O)[C@H](CCC(=O)O[H])NC(=O)[C@H](Cc2ccccc2)NC(=O)[C@@H]2CCCN2C(=O)[C@H]2CCCN2C(=O)[C@H](Cc2ccccc2)NC1=O] (cyclo(FE[Trp(6-Cl)]LDWEF[dP]P)), the negative logarithm of the IC50 (pIC50) is greater than 6.00.

As to `CC(C)C[C@H]1C(=O)N[C@@H](CC(=O)O)C(=O)N[C@@H](Cc2c[nH]c3ccccc23)C(=O)N[C@@H](CCC(=O)O)C(=O)N[C@@H](Cc2ccccc2)C(=O)N2CCC[C@@H]2C(=O)N2CCC[C@H]2C(=O)N[C@@H](Cc2ccccc2)C(=O)N[C@@H](CCC(=O)O)C(=O)N[C@@H](Cc2c[nH]c3ccccc23)C(=O)N1C` [Compound 3, [H]OC(=O)CC[C@@H]1NC(=O)[C@H](Cc2ccccc2)NC(=O)[C@@H]2CCCN2C(=O)[C@H]2CCCN2C(=O)[C@H](Cc2ccccc2)NC(=O)[C@H](CCC(=O)O[H])NC(=O)[C@H](Cc2cn([H])c3ccccc23)NC(=O)[C@H](CC(=O)O[H])NC(=O)[C@H](CC(C)C)N(C)C(=O)[C@H](Cc2cn([H])c3ccccc23)NC1=O] (cyclo(FEW[NMeL]DWEF[dP]P)), the pIC50 is greater than 6.00.

Regarding `C[C@H]1C(=O)N[C@@H](Cc2ccc(Cl)cc2)C(=O)N2CCCC[C@@H]2C(=O)N2CCC[C@H]2C(=O)N[C@@H](Cc2ccccc2)C(=O)N[C@@H](C(C)(C)C)C(=O)N[C@@H](Cc2ccc(O)cc2)C(=O)N2CCC[C@@H]2C(=O)N(C)[C@@H](C)C(=O)N[C@@H](Cc2ccc(F)cc2)C(=O)N1C` [Compound 11, [H]Oc1ccc(C[C@@H]2NC(=O)[C@@H](NC(=O)[C@H](Cc3ccccc3)NC(=O)[C@@H]3CCCN3C(=O)[C@H]3CCCCN3C(=O)[C@H](Cc3ccc(Cl)cc3)NC(=O)[C@H](C)N(C)C(=O)[C@H](Cc3ccc(F)cc3)NC(=O)[C@H](C)N(C)C(=O)[C@H]3CCCN3C2=O)C(C)(C)C)cc1] (cyclo(F[Tle]Y[dP][NMeA][Phe(4-F)][NMeA][Phe(4-Cl)][dPip]P)), the negative-log IC50 (pIC50) is no more than 5.30.

`COCCN1CC(=O)N(C)[C@@H](C)C(=O)N[C@@H](Cc2ccc(F)cc2)C(=O)N(C)[C@@H](C)C(=O)N[C@@H](Cc2ccc(Cl)cc2)C(=O)N2CCCC[C@@H]2C(=O)N2CCC[C@H]2C(=O)N[C@@H](Cc2cccs2)C(=O)N[C@@H](C(C)(C)C)C(=O)N[C@@H](Cc2cccnc2)C1=O` [Compound 20, COCCN1CC(=O)N(C)[C@@H](C)C(=O)N[C@@H](Cc2ccc(F)cc2)C(=O)N(C)[C@@H](C)C(=O)N[C@@H](Cc2ccc(Cl)cc2)C(=O)N2CCCC[C@@H]2C(=O)N2CCC[C@H]2C(=O)N[C@@H](Cc2cccs2)C(=O)N[C@H](C(=O)N[C@@H](Cc2cccnc2)C1=O)C(C)(C)C] (cyclo([2Thi][Tle][3Pal][Nme][NMeA][Phe(4-F)][NMeA][Phe(4-Cl)][dPip]P)) had a pIC50 greater than 6.00.
